Measurements reported in patent publication EP4810508A1, “ARABINOSE DERIVATIVE COMPOUND, AND COMPOSITION COMPRISING SAME FOR PREVENTING OR TREATING DEGENERATIVE BRAIN DISEASES” (Digmbio. Inc., priority 2023, dated 2025).
Read-outs that look alike come from different tables or passages of the source.

Experiments:
HRE/Luc/HEK293 cells = assay: HRE (Hypoxia Response Element) luciferase assay; format: cell-based, human; details: for fold induction at 10 µM / fold induction at 100 µM: Homo sapiens; for HRE assay: increase in HRE expression levels by the test substance relative to the vehicle in HRE/Luc/HEK293 cells
How it was run: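 HRE-luciferase HEK293 cells in MEM/10% FBS pretreated with compound 6 h, then held under hypoxia (0.1% O2) 18 h; luminescence read after lysis. Scored as fold increase over vehicle, with twofold threshold at 100, 10 or 1 µM.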

male ICR mice [1] = assay: Scopolamine-induced cognitive impairment model: Y-maze test; format: in vivo; details: for percent recovery of cognitive function (Y-maze) at 50 mg/kg: Mus musculus, po, 168 h; for in vivo Y-maze (%): spontaneous alternation
Excerpt: (§1) A memory loss rodent animal model induced by scopolamine intraperitoneal administration is used, and an evaluation method for memory uses a Y-maze test and a passive avoidance test (PAT). Scopolamine is a representative experimental model showing an impairment of cognitive function similar to AD patients by blocking neurotransmitters when administered to an animal as an antagonist of a muscarinic acetylcholine receptor, and as a cognitive function evaluation technique, a Y-maze test and a passive avoidance experiment, which are general and representative methods, were used, and in order to objectify the efficacy levels of the compounds, a group administered with donepezil (Aricept, Eisa) as a positive control material was separately provided to compare the efficacy levels of the compounds.
(§2) In order to evaluate cognitive function, 5-week-old male ICR mice were used, the compounds to be evaluated were prepared at a dose of 50 mg/kg/ml and repeatedly orally administered at a predetermined time for 7 days, and the positive control material was carried out at 5 mg/kg/ml. After the last administration, after 30 minutes of intraperitoneal administration of 1 mg/kg/2 ml of scopolamine, a Y-maze test and a passive avoidance test, which are cognitive function evaluations, were performed.
The Y-maze test is a method for evaluating the ability to sequentially act as an experiment for measuring short-term memory. The measurement equipment is composed of three branches, each branch has a length of 42 cm, a width of 3 cm, and a height of 12 cm, and an angle at which three branches are folded is 120°. Experimental animals are put into each branch for 8 minutes, and the number of times of entering the branches to the tail of the experimental animal and the case of being sequentially received in each branch are scored (actual alternation). The alternation behavior is defined as entering not to overlap all three, and is calculated by the following equation. [formula]

male ICR mice [2] = assay: Scopolamine-induced cognitive impairment model: passive avoidance test (PAT); format: in vivo; details: for percent recovery of memory in passive avoidance test (normal group = 100, scopolamine control = 0) at 50 mg/kg: Mus musculus, po, 168 h, read-out: in vivo(effect) PAT (%); for in vivo PAT: time staying in bright room (step-through latency); for cognitive function recovery compared to normal animals, passive avoidance test (effect %): compounds 50 mg/kg, orally for 7 days, scopolamine 1 mg/kg intraperitoneal
Excerpt: as §1, §2
In addition, the passive avoidance test was conducted using an avoidance learning box (Jeondo B&P, Korea, Seoul), and the avoidance learning box is divided into a dark room and a bright room, and when a laboratory animal is put into a bright room, the subject goes beyond the dark room. At the moment, an electric shock of 0.5 mA is applied for 5 seconds, and when the next day experimental animal is put back into a bright room, an electric shock in a dark room is memorized and stay in a bright room. In this case, a step-through latency is measured to evaluate memory. The efficacy of the compounds of the present invention against the normal group and the control group in the Y-maze test and the passive avoidance test was described in the following Table 3 (Scopolamine-induced cognitive impairment model result).

[3] = HEK293, fold increase of HRE expression, hypoxic conditions (O2 0.1%) 18 hours, Table 2, read-out: HRE-increasing 10uM
[4] = HEK293, fold increase of HRE expression, hypoxic conditions (O2 0.1%) 18 hours, Table 2, read-out: HRE-increasing 100uM
[5] = read-out: cognitive function recovery compared to normal animals, Y-maze experiment (effect %)
[6] = read-out: in vivo(effect) Y-maze (%)
[7] = scopolamine 1 mg/kg i.p., compounds 50 mg/kg oral for 7 days, donepezil 5 mg/kg (avg.)
[8] = effect compared to normal group (100) and control group (0), compounds 50 mg/kg oral for 7 days, donepezil 5 mg/kg (avg.)
[9] = range over experiment sets, donepezil 5 mg/kg oral for 7 days, scopolamine 1 mg/kg i.p.
[10] = range over experiment sets, effect compared to normal and control group, donepezil 5 mg/kg

SMILES | fold induction at 10 µM (HRE/Luc/HEK293 cells; [3]) | fold induction at 100 µM (HRE/Luc/HEK293 cells; [4]) | percent recovery of cognitive function (Y-maze) at 50 mg/kg (male ICR mice [1]; [5]) [%] | percent recovery of cognitive function (Y-maze) at 50 mg/kg (male ICR mice [1]; [6]) [%] | in vivo Y-maze (%) (male ICR mice [1]; [7]) | percent recovery of memory in passive avoidance test (normal group = 100, scopolamine control = 0) at 50 mg/kg (male ICR mice [2]) [%] | in vivo PAT (male ICR mice [2]; [7]) [s] | cognitive function recovery compared to normal animals, passive avoidance test (effect %) (male ICR mice [2]; donepezil 5 mg/kg) [%] | HRE assay (HRE/Luc/HEK293 cells) | HRE expression (HRE/Luc/HEK293 cells; concentration of 10 µM) | fold induction at 10 µM (HRE/Luc/HEK293 cells; HEK293, 18 h, Table 2 (Examples 37-74, 52), read-out: HKt-increasing 10uM) | fold induction at 100 µM (HRE/Luc/HEK293 cells; HEK293, 18 h, Table 2 (Examples 37-74, 52), read-out: HKt-increasing 100uM) | HRE expression (HRE/Luc/HEK293 cells; low concentration of 1 µM) | cognitive function recovery compared to normal animals, Y-maze experiment (effect %) (male ICR mice [1]; compounds 50 mg/kg, donepezil 5 mg/kg, orally for 7 days, scopolamine 1 mg/kg intraperitoneal) [%] | in vivo(effect) Y-maze (%) (male ICR mice [1]; [8]) | in vivo Y-maze (%), range (male ICR mice [1]; [9]) | in vivo(effect) Y-maze (%), range (male ICR mice [1]; [10]) | in vivo(effect) PAT (%) (male ICR mice [2]; [8]) | in vivo PAT (sec), range (male ICR mice [2]; [9]) | in vivo(effect) PAT (%), range (male ICR mice [2]; [10])
COc1ccc2cc(Cc3ccc(O[C@H]4OC[C@H](O)[C@H](O)[C@H]4O)cc3)ccc2c1 [Example 20, ((2R,3R,4S,5S)-2-(4-(6-methoxynaphthalen-2-yl)methyl)phenoxy)tetrahydro-2H-pyran-3,4,5-triol] | 1 | 1.1 | ≥ 50 | 61 | 69 | 38 | 142 | – | – | – | – | – | – | – | – | – | – | – | – | –
COc1ccc(C(C)(C)c2ccc(O[C@H]3OC[C@H](O)[C@H](O)[C@H]3O)cc2)cc1 [Example 30, (2R,3R,4S,5S)-2-(4-(2-(4-methoxyphenyl)propan-2-yl)phenoxy)tetrahydro-2H-pyran-3,4,5-triol] | 1.1 | 1.4 | – | 45 | 63 | 60 | 194 | ≥ 50 | – | – | – | – | – | – | – | – | – | – | – | –
O[C@@H]1[C@@H](O)[C@@H](Oc2ccc(Cc3ccccc3)cc2)OC[C@@H]1O [Example 1, (2R,3R,4S,5S)-2-(4-benzylphenoxy)tetrahydro-2H-pyran-3,4,5-triol] | 1.2 | 2.2 | – | 38 | 64 | 35 | 133 | – | •• | – | – | – | – | – | – | – | – | – | – | –
O[C@@H]1[C@@H](O)[C@@H](Oc2ccc(Cc3ccc(Cl)cc3)cc2)OC[C@@H]1O [Example 14, (2R,3R,4S,5S)-2-(4-(4-chlorobenzyl)phenoxy)tetrahydro-2H-pyran-3,4,5-triol] | 1.9 | 2.5 | – | 7 | 57 | 33 | 129 | – | •• | – | – | – | – | – | – | – | – | – | – | –
CC(C)(C)c1ccc(Oc2ccc(O[C@H]3OC[C@H](O)[C@H](O)[C@H]3O)cc2)cc1 [Example 36] | 3.5 | < 1 | – | 42 | 59 | 17 | 76 | – | – | more than threefold | – | – | – | – | – | – | – | – | – | –
O[C@@H]1[C@@H](O)[C@@H](Oc2ccc(Cc3ccc(F)cc3)cc2)OC[C@@H]1O [Example 13, (2R,3R,4S,5S)-2-(4-(4-fluorobenzyl)phenoxy)tetrahydro-2H-pyran-3,4,5-triol] | 1.4 | 2.4 | – | 17 | 57 | 37 | 149 | – | •• | – | – | – | – | – | – | – | – | – | – | –
CC(C)c1ccc(Cc2ccc(O[C@H]3OC[C@H](O)[C@H](O)[C@H]3O)c(F)c2)cc1 [Example 41, (2R,3R,4S,5S)-2-(2-fluoro-4-(4-isopropylbenzyl)phenoxy)tetrahydro-2H-pyran-3,4,5-triol] | – | – | ≥ 50 | 54 | 59.8 | 16 | 69.6 | – | – | – | 3 | 3.2 | more than threefold | – | – | – | – | – | – | –
COc1ccc(Cc2cccc(O[C@H]3OC[C@H](O)[C@H](O)[C@H]3O)c2)cc1 [Example 25, (2R,3R,4S,5S)-2-(3-(4-methoxybenzyl)phenoxy)tetrahydro-2H-pyran-3,4,5-triol] | – | – | ≥ 50 | 65 | 62 | 1 | 42 | – | – | – | – | – | – | – | – | – | – | – | – | –
Cc1ccc(Cc2ccc(O[C@H]3OC[C@H](O)[C@H](O)[C@H]3O)cc2)cc1 [Example 2, (2R,3R,4S,5S)-2-(4-(4-methylbenzyl)phenoxy) tetrahydro-2H-pyran-3,4,5-triol] | 2.5 | 3.2 | ≥ 50 | 51 | 63 | 25 | 134 | – | ••• | – | – | – | – | – | – | – | – | – | – | –
Cc1ccc(Oc2ccc(O[C@H]3OC[C@H](O)[C@H](O)[C@H]3O)cc2)cc1 [Example 33, (2R,3R,4S,5S)-2-(4-(para-tolyloxy)phenoxy) tetrahydro-2H-pyran-3,4,5-triol] | 3.8 | 2.5 | – | 30 | 56 | 10 | 58 | – | – | more than threefold | – | – | – | – | – | – | – | – | – | –
COc1ccc(Cc2ccc(O[C@H]3O[C@@H](C)[C@@H](O)[C@@H](O)[C@@H]3O)cc2)cc1 [Example 6, (2R,3S,4R,5S,6S)-2-(4-(4-methoxybenzyl)phenoxy)-6-methyltetrahydro-2H-pyran-3,4,5-triol] | < 1 | 1.5 | – | -6 | 53 | 10 | 109 | – | • | – | – | – | – | – | – | – | – | – | – | –
COc1ccc(Cc2ccc(O[C@H]3OC[C@H](O)[C@H](O)[C@H]3O)cc2)cc1 [Example 3, (2R,3R,4S,5S)-2-(4-(4-methoxybenzyl)phenoxy)tetrahydro-2H-pyran-3,4,5-triol] | 1.5 | 3.1 | 59 | 59 | 61 | 91 | 206 | 91 | •• | – | – | – | – | – | – | – | – | – | – | –
COc1cccc(Cc2ccc(O[C@H]3OC[C@H](O)[C@H](O)[C@H]3O)cc2)c1 [Example 15, (2R,3R,4S,5S)-2-(4-(3-methoxybenzyl)phenoxy)tetrahydro-2H-pyran-3,4,5-triol] | 1.1 | 2.2 | ≥ 50 | 66 | 66 | 30 | 142 | – | – | – | – | – | – | – | – | – | – | – | – | –
COc1cc2c(cc1OC)C(=O)C(CC1CCN(Cc3ccccc3)CC1)C2 (stereo not shown) [donepezil, reference compound] | – | – | – | – | 67 | – | 219 | 94 | – | – | – | – | – | 35 | 72 | 56-74% | 35-111% | 82 | 173~251 sec | 59-95%
